We go through 1 molecule from publication PMC6270759, “Constituents of the Roots and Leaves of Ekebergia capensis and Their Potential Antiplasmodial and Cytotoxic Activities” (Molecules, 2014).

The structures appear in SMILES notation. Marks after values point to notes of the source that are not given here.

Data set [1] has as its system chloroquine-sensitive D6 strain of P. falciparum. The data set can be described thus: In vitro antiplasmodial assay, (G-3H) hypoxanthine incorporation, D6 strain. Format: cell-based. Particulars: Plasmodium falciparum; pure compounds; P. falciparum D6; mean of at least three independent experiments; read-out: IC50 D6. The protocol: (§1) Continuous in vitro cultures of asexual erythrocytic stages of Indochinese chloroquine-resistant W2 and Sierra Leonean chloroquine-sensitive D6 strains of P. falciparum were maintained following the modified procedure described by Trager and Jensen. Drug assay was carried out following a modification of the semiautomated microdilution technique, which measures the ability of the extracts to inhibit the incorporation of (G-^3H) hypoxanthine into the malaria parasite. […] Data was transferred into the software Microsoft Excel and was expressed as the percentage of the untreated controls. The drug concentration required for 50% inhibition of (G-^3H) hypoxanthine incorporation into parasite nucleic acid was calculated with nonlinear regression analysis of the dose-response curve.

For data set [2], the system named is chloroquine-resistant W2 strain of P. falciparum. Put plainly: In vitro antiplasmodial assay, (G-3H) hypoxanthine incorporation, W2 strain. Format: cell-based. To be noted: Plasmodium falciparum, pure compounds. The method, then:
as §1

Data set [3] deals with African monkey kidney (vero) cells. Put plainly: MTT cytotoxicity assay, vero cells. In kind it is cell-based. Particulars: Primates; vero cells, MTT, 48 h; read-out: IC50 Vero. The source says:
(§2) This assay is based on the ability of a mitochondrial dehydrogenase enzyme from viable cells to cleave the tetrazolium rings of the pale yellow MTT and thereby form dark blue formazan crystals, which are largely impermeable to cell membranes, resulting in their accumulation within healthy cells. The amount of generated formazan is directly proportional to the number of cells. […] Cells were maintained in Eagle’s Minimum Essential Medium (MEM) containing 10% fetal bovine serum (FBS). A cell density of 20.000 cells per well in 100 μL were seeded on 96-well plates and incubated for 12 h at 37 °C and 5% CO2 to attach to the surface. […] The plates were incubated for 48 h at 37 °C and 5% CO2, followed by an addition of 10 µL MTT viability indicator reagent. The plates were incubated for additional 4 h at the same conditions. Next, all media was removed from the plates and 100 µL DMSO was added to dissolve the formazan crystals. The plates were read on a Multiskan EX Labsystems scanning multi-well spectrophotometer at 562 nm, and 620 nm as reference. The results were recorded as optical density (OD) per well at each drug concentration. The data was transferred into the software Microsoft Excel and expressed as percentage of the untreated controls.
Background: Tetrazolium assays rely on reduction of a dye to a coloured formazan, in cell work by metabolically active cells.

In data set [4] the test system is mouse breast cancer (4T1) cells. The data set can be described thus: MTT cytotoxicity assay, 4T1 cells. Format: cell-based. To be noted: 4T1, 48 h, pure compounds.
Source text: as §2

For data set [5], the system named is human larynx carcinoma (HEp2) cells. The data set can be described thus: MTT cytotoxicity assay, HEp2 cells. In kind it is cell-based. Particulars: HEp-2, pure compounds, 48 h. The method, then:
(§3) A rapid colorimetric assay was carried out using 3-(4,5-dimethylthiazol-2-yl)-2,5-diphenyltetrazolium bromide (MTT). This assay is based on the ability of a mitochondrial dehydrogenase enzyme from viable cells to cleave the tetrazolium rings of the pale yellow MTT and thereby form dark blue formazan crystals, which are largely impermeable to cell membranes, resulting in their accumulation within healthy cells. The amount of generated formazan is directly proportional to the number of cells. In this assay, the mammalian cell lines African monkey kidney (vero), mouse breast cancer (4T1) and human larynx carcinoma (HEp2) were used. Cells were maintained in Eagle’s Minimum Essential Medium (MEM) containing 10% fetal bovine serum (FBS). A cell density of 20.000 cells per well in 100 μL were seeded on 96-well plates and incubated for 12 h at 37 °C and 5% CO2 to attach to the surface. Samples of the tested extracts and isolated compounds were added to the cultured cells in rows H-B over a concentration range of 0.14 to 100 μg/mL, whereas wells 1–8 of row A served as untreated controls and wells 9–12 as blank (1% DMSO, v/v). The plates were incubated for 48 h at 37 °C and 5% CO2, followed by an addition of 10 µL MTT viability indicator reagent. The plates were incubated for additional 4 h at the same conditions. Next, all media was removed from the plates and 100 µL DMSO was added to dissolve the formazan crystals. The plates were read on a Multiskan EX Labsystems scanning multi-well spectrophotometer at 562 nm, and 620 nm as reference. The results were recorded as optical density (OD) per well at each drug concentration. The data was transferred into the software Microsoft Excel and expressed as percentage of the untreated controls. Percentage cytotoxicity (PC) as compared to the untreated controls was calculated as PC = [A − B/A] × 100, where A is the mean OD of the untreated cells and B is the mean OD at each drug concentration. The drug concentration required for 50% inhibition of cell growth was estimated using nonlinear regression analysis of the dose- response curve.

The subject of data set [6] is MDA-MB-231 human breast cancer cells. The data set can be described thus: Alamar Blue cytotoxicity assay, MDA-MB-231 cells. In kind it is cell-based. Particulars: pure compounds, 72 h. The protocol: Cytotoxicity tests on MDA-MB-231 cells were carried out following a previously described procedure. MDA-MB-231 human breast cancer cells were cultured in Dulbecco’s modified eagle medium (DMEM) supplemented with 10% (v/v) fetal bovine serum, 2 mM L-glutamine, 100 units/mL penicillin and 100 μg/mL streptomycin at 37 °C in humidified 5% CO2. For cytotoxicity assays, cells were seeded in 96-well plates at optimal cell density (10,000 cells per well) to ensure exponential growth for the duration of the assay. After a 24 h preincubation growth, the medium was replaced with experimental medium containing the appropriate drug concentrations or vehicle controls (0.1% or 1.0% v/v DMSO). After 72 h of incubation, cell viability was measured using Alamar Blue reagent (Invitrogen Ab, Lidingö, Sweden) according to the manufacturer’s instructions. Absorbance was measured at 570 nm with 600 nm as a reference wavelength. Results were expressed as the mean ± standard error for six replicates as a percentage of vehicle control (taken as 100%). Experiments were performed independently at least six times. Statistical analyses were performed using a two-tailed Student’s t-test. p < 0.05 was considered to be statistically significant.
Background: Alamar Blue is a resazurin reagent that responds to reducing activity.

The subject of a further data set is vero cells. The data set can be described thus: Interaction of oleanonic acid (2) with other triterpenoids, fixed ratios, vero cell cytotoxicity. In kind it is cell-based, African monkey.
Source text: as §3, with “This” for “A rapid colorimetric assay was carried out using 3-(4,5-dimethylthiazol-2-yl)-2,5-diphenyltetrazolium bromide (MTT). This”, “In this assay, the mammalian cell lines African monkey kidney (vero), mouse breast cancer (4T1) and human larynx carcinoma (HEp2) were used.” left out, “Samples of the tested extracts and isolated compounds were added to the cultured cells in rows H-B over a concentration range of 0.14 to 100 μg/mL, whereas wells 1–8 of row A served as untreated controls and wells 9–12 as blank (1% DMSO, v/v).” left out, “curve. The interaction of oleanonic acid (2) with other triterpenoids was studied using the fixed concentration ratios oleanonic acid: ‘other triterpenoid’ 0:1, 1:3, 1:1, 3:1, 1:0. The vero cell cytotoxicity assay was used, as described above, to evaluate the toxicity of the mixtures. To determine whether there was synergy, additive effect or antagonism, the sum of fractional inhibition concentration (∑FIC) was calculated using the formula Ax/Ay + Bx/By = K, where Ax and Bx are the IC50s when the substances are used in combination, and Ay and By are the IC50s, when the substances are used alone. The data was scored with the scale ∑FIC < 1: synergism, 2 > ∑FIC ≥ 1: additive, 4 > ∑FIC ≥ 2: slight antagonism, ∑FIC ≥ 4: marked antagonism.” for “curve.”

For data set [7], the system named is 3D7 strain of P. falciparum. More on the design: method as in PMID 14598212. Particulars: cited from earlier work.

Regarding `CC1(C)CC[C@]2(C(=O)O)CC[C@]3(C)C(=CC[C@@H]4[C@@]5(C)CC[C@H](O)C(C)(C)[C@@H]5CC[C@]43C)[C@@H]2C1` [Compound 4, oleanolic acid], the IC50 amounted to 49.6 ± 2.3 µM in data set [1]; 82.7 ± 2 µM in data set [2]; 112 ± 5.1 µM in data set [3]; 118 ± 2.6 µM in data set [4]; 134.9 ± 0.7 µM in data set [5]; 39.82 ± 0.03 µM in data set [6]. In addition, the IC50 with vero cells (Primates, ratio 0:1, in the absence of 2 (for 2: alone), read-out: IC50 (μg/mL), substance alone) amounted to 40.3 µg/mL. Moreover, the “Interaction with the cytotoxic effect of oleanonic acid (2), in words” value in the data set with vero cells was “slight antagonistic effect”. In addition, the “∑FIC 1:1” value in the data set with vero cells (ratio of oleanonic acid (2) versus constituent 1:1) is on record as 4.7 ^c. For the same molecule, the “∑FIC 1:3” value in the data set with vero cells (ratio of oleanonic acid (2) versus constituent 1:3) is 3.3 ^c. Further, the “∑FIC 3:1” value in the data set with vero cells (ratio of oleanonic acid (2) versus constituent 3:1) is given as 3.6 ^c. Besides, in data set [7], the “in vitro antiplasmodial activity against 3D7, in words” value is “moderate”.
